One block for each molecule: values may come before it.
Legend:
[1] = Log D7.4 shake flask assay; assay type: physicochemical; settings: octanol/PBS, pH 7.4
Chemical stability assay = assay type: physicochemical; settings: 37 °C
[2] = Caco-2 bidirectional permeability assay; settings: human, Caco-2, 10 µM, 37 °C
[3] = system: MCF7 (EGFR positive cancer cell line); assay: LDH release cytotoxicity / cell viability assay in MCF7; assay type: cell-based; settings: Homo sapiens
[4] = buffer pH 2.0, pH 2, Chemical Stability - Half-Life, pH 2.0, 5 µM
[5] = buffer pH 10.0, pH 10, Chemical Stability - Half-Life, pH 10.0, 5 µM

Structure (SMILES): CCCSc1ccc2nc(NC(=O)OC)[nH]c2c1 [Albendazole, albendazole]
solubility at 24 h (Thermodynamic solubility; pH 4.5): < 1 µg/mL
Thermodynamic Solubility (Thermodynamic solubility; pH 7.4, PBS, room temperature, 24 h): 0.72 ± 0.2 µg/mL
logD at 4 h [1]: 3.6 ± 0.1

Structure (SMILES): COc1ccc2[nH]c([S+]([O-])Cc3ncc(C)c(OC)c3C)nc2c1 (stereo not shown) [Omeprazole]
half-life at 5 µM (Chemical stability assay; [4]): 10.2 ± 3.1 min
half-life at 5 µM (Chemical stability assay; [5]): 55.3 ± 11.4 min

Structure (SMILES): CC(C)(O)CC(=O)NCCn1ccc2ncnc(Nc3ccc(Oc4cccc(C(F)(F)F)c4)c(Cl)c3)c21 [TAK-285]
IC50 [3]: 15.5 ± 5.6 µM

Next, values leading:

half-life at 5 µM (Chemical stability assay; [4]): 82.9 ± 14.8 min
half-life at 5 µM (Chemical stability assay; [5]): 8.3 ± 2.6 min
Structure (SMILES): CC(C)[N+](C)(CCOC(=O)C1c2ccccc2Oc2ccccc21)C(C)C [Propantheline bromide]

Papp at 2 h, 10 µM ([2]; Caco-2, pH 7.4, Papp (Apical to Basal), apical to basal): 29 ± 1.2 ×10⁻⁶ cm/s
Papp at 2 h, 10 µM ([2]; Caco-2, pH 7.4, Papp (Basal to Apical), basal to apical): 21.1 ± 0.3 ×10⁻⁶ cm/s
Structure (SMILES): CC(C)NCC(O)COc1cccc2ccccc12 (stereo not shown) [Propranolol, propranolol]
